Tests used:
[1] = molecular target: T1, cardiac histamine H2 receptor (Cavia porcellus, UniProt P47747); details: concentration inhibiting by 50% the increase in frequency induced by histamine; isolated right atrium of the Guinea pig; CM 57755 as dihydrochloride
T1 construct: isolated right atrium of the Guinea pig; from tissue; host or cells: isolated guinea pig right atrium

[2] = molecular target: T2, gastric histamine H2 receptor (Cavia porcellus, UniProt P47747); parameters: species or system guinea pig; details: for IC50: concentration inhibiting by 50% the secretion induced by histamine, isolated stomach mucous membrane of the Guinea pig, CM 57755 as dihydrochloride; for IC50 m/IC50 o: ratio gastric IC50 / cardiac IC50
T2 construct: isolated stomach mucous membrane of the Guinea pig; from tissue; host or cells: isolated guinea pig stomach mucous membrane

[3] = tested on: gastric histamine H2 receptors; experiment: antisecretory activity: antagonism to the hypersecretion provoked by histamine in the rat (Ghosh and Schild); assay type: in vivo; details: intravenous route, histamine infusion equivalent to 15 mcmol/kg/hour
Excerpt: The antagonistic activity of the products of the present invention towards the gastric histamine H2 receptors was confirmed in the test of the antisecretory activity based on the antagonism to the hypersecretion provoked by histamine in the rat according to the method of Ghosh and Schild (Brit. J. Pharmacol.1958; 13, 54). According to this test, a gastric acid hypersecretion is induced by intravenous infusion of a submaximal dose equivalent to 15 mcmol/kg/hour and the gastric secretion is measured by perfusion of a physiological solution at a constant speed in the stomach of the animal.

[4] = tested on: hypersecretion provoked by the dimaprit; experiment: antisecretory activity in the cat having a gastric fistula, dimaprit as hypersecretor (Emas et al.); assay type: in vivo; details: dimaprit 640 mcg/kg/hour
Procedure: The antisecretory activity of the products of the present invention was assessed in the cat having a gastric fistula according to the method of Emas et al.(Gastroenterology, 1969; 39, 771) using, as hypersecretor, dimaprit at the dose of 640 mcg/kg/hour.

[5] = acute toxicity (LD50) in the rat; details: in vivo, intravenous route
cardiac H2 receptors = details: treatment of ulcerous disease; Clinica Terapeutica, 1981, 96, 81-91; cited from earlier work

T2 sequence (P47747 whole entry): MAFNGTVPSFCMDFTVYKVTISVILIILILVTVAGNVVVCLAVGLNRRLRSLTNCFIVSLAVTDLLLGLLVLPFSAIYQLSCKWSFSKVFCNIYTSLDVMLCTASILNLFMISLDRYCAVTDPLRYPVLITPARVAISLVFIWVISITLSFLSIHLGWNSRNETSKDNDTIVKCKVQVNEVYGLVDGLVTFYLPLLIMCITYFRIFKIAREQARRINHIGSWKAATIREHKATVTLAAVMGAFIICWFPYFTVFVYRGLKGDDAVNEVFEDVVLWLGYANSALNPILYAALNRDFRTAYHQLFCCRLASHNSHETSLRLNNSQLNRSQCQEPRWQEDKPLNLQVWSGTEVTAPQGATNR
T1 sequence (P47747 whole entry): as above

| SMILES | IC50 [1] [nM] | IC50 [2] [nM] | affinity for the gastric H2 receptors versus the cardiac H2 receptors ([2]; conclusion from the IC50 m/IC50 o ratio) | selectivity of antagonising gastric hypersecretion versus the positive chronotropic action provoked by histamine ([2]; conclusion from the IC50 m/IC50 o ratio, relative to the reference compounds) | IC50 m/IC50 o [2] | dose inhibiting by 50% the hypersecretion provoked by histamine [3] [mg/kg] | duration of action after the suspension of the treatment [4] | activity compared with that of cimetidine ([4]; on molar basis) | antagonism of the hypersecretion provoked by the dimaprit ([4]; venous perfusion and intragastric route) | LD50 [5] [mg/kg] | secondary effects (block of the cardiac H2 receptors may be the cause) (cardiac H2 receptors) |
| --- | --- | --- | --- | --- | --- | --- | --- | --- | --- | --- | --- |
| CN(C)Cc1ccc(CSCCNC(=O)c2ccc[n+]([O-])c2)o1.Cl.Cl [CM 57755, N-[2-(5-dimethylaminomethylfuran-2-ylmethylthio)ethyl]-3-pyridinecarboxamide 1-oxide dihydrochloride] | 4300 | 9200 | greater affinity for the gastric H2 receptors than for the cardiac H2 receptors | capable of antagonising gastric hypersecretion more selectively than the positive chronotropic action provoked by histamine | 2.13 | 0.9 | long duration of action after the suspension of the treatment | comparable, on molar basis, to that of the cimetidine | antagonises in dose-dependent manner | 300 |  |
| CNC(=NC#N)NCCSCc1nc[nH]c1C [cimetidine, 2-cyano-1-methyl-3-[2[(5-methylimidazol-4-yl)methylthio]ethyl]guanidine, reference compound] |  |  |  |  |  |  | more transient |  |  |  | bradycardia and of asystolia |
| CNC(=C[N+](=O)[O-])NCCSCc1ccc(CN(C)C)o1 [ranitidine, reference compound] | 86 | 650 |  |  | 7.6 |  |  |  |  |  |  |
